“Also recorded” adds a separate entry of the source. Read-outs that look alike come from different tables or passages of the source.
How the values were obtained:
TNBS-induced colitis = assay type: in vivo, mice; conditions: for effect on CD-like colitis (overall statement): mouse IBD model, acute/chronic not specified; for disease activity (DAI), acute TNBS-colitis: mouse, in vivo
From the text: C57BL/6. Mice were pretreated either with PBS (control), or nicotine, PNU (α7 agonist), or MLA drug by peritoneal injection once daily for five days. Mice were then induced to develop colitis for seven days with either TNBS (in 50% ethanol) or 50% ethanol alone as a control. Disease activity of all mice was monitored daily.
(§1) For CD-like mouse model, BALB/c mice were used for the induction of DSS colitis. For CD-like mouse model, BALB/c mice were used for the induction of TNBS-colitis. C57/B6 or BALB/c mice, 6-8 weeks old, were pretreated (daily peritoneal injection) for one week with either nicotine (a non-specific ligand of nAChRα7; 6 mg/kg) or a nAChRα7-specific agonist (PNU; 8.3 mg/kg). Controls were mice without the pre-treatments (a total of >10 mice in each treatment group). The mice were then induced to develop either CD-like colitis with TNBS (600 μg) or UC-like colitis with DSS (2.5%).

DSS-induced colitis = assay type: in vivo, mice; conditions: for effect on UC-like colitis (overall statement): mouse IBD model, acute/chronic not specified
Experimental: (§2) In an acute model, mice were treated with or without nAChRα7 agonist drug for five days. DSS were then given for seven days. Clinical activity scores were assessed. In a chronic model, mice were given DSS for seven days followed by seven days water. These DSS-water cycles were repeated three more times continuously. […] At this point, nAChRα7 agonist was given in one set of mice and all mice were followed for eleven days. […] The arrow indicates the start (day 53) of nAChRα7 agonist treatment in the chronic model;
as §1

chronic DSS colitis = experiment: Chronic UC-like DSS colitis, therapeutic treatment; assay type: in vivo, mice; conditions: four DSS-water cycles, treatment from day 53, followed eleven days
Experimental: as §2
Induction of chronic UC-like colitis was described in the legends of FIG. 6.

[1] = test system: chronic TNBS-induced colitis; assay type: in vivo, mice
[2] = test system: DSS-induced colitis of nAChRα7 deficient mice; conditions: mouse, in vivo
Experimental: (§3) Wild type (WT) nAChRα7 deficient (nAChRα7 knockout; α7KO) mice, both in C57B/6 background, were induced to develop colitis, either with DSS (A) or TNBS (B). […] N≧6 per group;
(§4) To exclude this possibility, nAChRα7 agonist and antagonist were tested on nAChRα7-knockout mice (nAChRα7-KO), in which development of chemically-induced colitis will not be affected by the agents if they are only specific to nAChRα7.

[3] = test system: TNBS-induced colitis of nAChRα7 deficient mice; conditions: mouse, in vivo
Experimental: as §3, §4

[4] = test system: Gpx1/2-double knockout (DKO) mice ileocolitis; experiment: GPX 1/2 DKO colitis; assay type: in vivo; conditions: administered once signs of colitis were evident
Experimental: Clinical activity scores were assessed.
Once signs of colitis were immediately evident, both nAChRα7 agonists and nAChRα7 antagonists were administered to Gpx1/2-DKO mice.

[5] = at the dose used in the preclinical studies
From the text: (§5) Other studies of these nAChRα7-specific drugs, including toxicity and pharmacokinetics, are being investigated.

[6] = test system: mouse behavior (immobility); conditions: DSS-induced colitis mice, IP agonist
Experimental: Tests were carried out on mice forced to swim in a cylindrical container for six minutes. Mice were divided into four groups: (a) control; (b) mice receiving IP agonist; (c) mice induced with DSS; and (d) mice receiving IP agonist and induced with DSS (n=6 in each group). The total duration of immobility in a container with 13 cm of water at 25° C. was scored. Immobility was defined when the mouse stopped struggling and remained floating motionless in the water, making only those movements necessary to keep its head above water. Day 0 and Day 7 indicate the days of DSS treatment.
as §5

[7] = test system: Immortalized (EBV-transformed) B lymphocytes of patients with UC, CD, and unaffected controls
Ulcerative colitis (UC) = conditions: human, in vivo; cited from earlier work
[8] = treatment of established chronic colitis

O=C(N[C@H]1CN2CCC1CC2)c1ccc(Cl)cc1 [PNU, N-[(3R)-1-azabicyclo[2.2.2]oct-3-yl]-4-chlorobenzamide]
effect on CD-like colitis (overall statement) (TNBS-induced colitis): worsened CD-like colitis | disease activity (DAI), acute TNBS-colitis (TNBS-induced colitis): greatly worsens; also recorded: worsens the disease; also recorded: either no therapeutic benefit, even worsening disease activity | effect on UC-like colitis (overall statement) (DSS-induced colitis): highly effective therapeutics for UC-like colitis | disease activity (DAI), acute DSS-colitis (DSS-induced colitis; mouse, in vivo): prevents DSS-induced UC-like colitis; also recorded: preventing DSS-induced colitis; also recorded: essentially eliminated the inflammation; also recorded: effectively prevent | potency compared with nicotine in preventing DSS-induced UC-like colitis (DSS-induced colitis; mouse, in vivo): slightly more potent | disease activity (clinical activity score), chronic DSS colitis (chronic DSS colitis): effectively reverse the disease course; also recorded: essentially eliminated the inflammation | disease activity (DAI), chronic TNBS-colitis [1, 8]: no significant effect | therapeutic effect on DSS-induced colitis in nAChRα7KO mice [2]: neither agonist (PNU) nor antagonist (MLA) was efficacious; also recorded: no effect at all | therapeutic effect on TNBS-induced colitis in nAChRα7KO mice [3]: neither agonist (PNU) nor antagonist (MLA) was efficacious; also recorded: no effect at all | colitis clinical activity score, GPX 1/2 DKO mice [4]: highly effective in treating colitis | adverse effect on mice [5]: no adverse effect | appearance of major organs (heart, kidney, liver, small and large intestines, spleen) [5]: look normal by appearance | immobility of DSS-mice in forced swim test [6]: completely reversed the immobility

CCN1C[C@]2(COC(=O)c3ccccc3N3C(=O)C[C@H](C)C3=O)CC[C@H](OC)[C@@]34[C@@H]5C[C@H]6[C@H](OC)[C@@H]5[C@](O)(C[C@@H]6OC)[C@@](O)([C@@H](OC)[C@H]23)[C@@H]14 [MLA, methyllycaconitine]
effect on CD-like colitis (overall statement) (TNBS-induced colitis): highly effective therapeutic agent for CD-like colitis | disease activity (DAI), acute TNBS-colitis (TNBS-induced colitis): efficiently prevent; also recorded: preventing acute TNBS-colitis; also recorded: essentially disappeared; also recorded: effectively prevent | effect on UC-like colitis (overall statement) (DSS-induced colitis): has no effect on UC-like colitis | disease activity (DAI), chronic TNBS-colitis [1, 8]: highly therapeutic effect; also recorded: effectively reverses the disease course

COc1ccc(/C=C2\CCCN=C2c2cccnc2)c(OC)c1 [GTS-21, 3-(2,4-dimethoxybenzylidene) anabaseine]
effect on CD-like colitis (overall statement) (TNBS-induced colitis): worsened CD-like colitis | effect on UC-like colitis (overall statement) (DSS-induced colitis): highly effective therapeutics for UC-like colitis | disease activity (DAI), acute DSS-colitis (DSS-induced colitis; mouse, in vivo): similarly effect of preventing development; also recorded: preventing DSS-induced colitis | disease activity (clinical activity score), chronic DSS colitis (chronic DSS colitis): effectively reverse the disease course

CN1CCCC1c1cccnc1 (stereo not drawn) [nicotine]
disease activity (DAI), acute DSS-colitis (DSS-induced colitis; mouse, in vivo): prevents the development; also recorded: prevents DSS-induced UC-like colitis; also recorded: effective in preventing UC-like DSS-colitis | disease activity (DAI), chronic TNBS-colitis ([1]; mouse, in vivo): no significant effect | anti-inflammatory cytokine IL-10 production [7]: significant inhibition | cytokine/chemokine changes, agent by itself [7]: insignificant cytokine/chemokine changes | production of proinflammatory cytokine/chemokine IL-8 and MIP-1 [7]: significant production | clinical efficacy in UC (Ulcerative colitis (UC)): significant clinical efficacy

— US20130197028A1, “nAChRalpha7 Agonists and nAChRalpha7 Antagonists for Treating Ulcerative Colitis (UC) and Crohn's Disease (CD)” (priority 2010, published 2013)
